What was measured:
[1] = target: T1, CHUK (IKK alpha) (Homo sapiens, UniProt O15111); test: Adapta IKKα assay (TR-FRET ADP formation, Life Technologies); format: biochemical; conditions: Adapta assay (second line of an example)
T1 construct: purchased Life Technologies (assay performed by the vendor)
T1 sequence (O15111 1-745): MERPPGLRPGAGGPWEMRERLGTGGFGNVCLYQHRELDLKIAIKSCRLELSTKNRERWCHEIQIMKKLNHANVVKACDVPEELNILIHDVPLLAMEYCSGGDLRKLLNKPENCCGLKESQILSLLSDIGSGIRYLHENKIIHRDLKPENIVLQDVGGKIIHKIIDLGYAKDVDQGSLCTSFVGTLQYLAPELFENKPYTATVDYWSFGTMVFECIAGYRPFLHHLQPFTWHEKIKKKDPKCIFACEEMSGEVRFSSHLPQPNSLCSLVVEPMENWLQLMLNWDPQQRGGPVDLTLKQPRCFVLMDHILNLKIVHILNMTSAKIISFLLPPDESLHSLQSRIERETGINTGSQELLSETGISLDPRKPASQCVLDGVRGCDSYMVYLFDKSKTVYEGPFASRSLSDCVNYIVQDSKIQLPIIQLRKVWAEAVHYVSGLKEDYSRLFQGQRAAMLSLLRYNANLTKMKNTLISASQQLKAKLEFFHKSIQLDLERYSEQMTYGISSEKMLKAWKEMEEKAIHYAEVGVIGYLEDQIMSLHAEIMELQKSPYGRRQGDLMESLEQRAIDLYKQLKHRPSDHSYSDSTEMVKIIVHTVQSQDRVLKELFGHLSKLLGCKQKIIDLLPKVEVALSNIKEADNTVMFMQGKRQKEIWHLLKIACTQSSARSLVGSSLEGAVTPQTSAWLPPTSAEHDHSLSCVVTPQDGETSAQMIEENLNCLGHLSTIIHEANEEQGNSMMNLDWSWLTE
Protocol: IKKα and IKKβ inhibitory activity was determined using three different assays: a dissociation enhanced ligand fluorescent immunoassay (DELFIA) based on the protocol of HTScan™ IKKβ Kinase Assay (Cell Signaling Technology, USA); an Adapta IKKα assay (performed by Life Technologies); a Z′-LYTE™ IKKβ assay (performed by Life Technologies).
The reaction was performed in low-volume white 384-well plates (Corning model 4512).
The test compounds were screened in 1% DMSO (final) in the well. For 10 point titrations, 3-fold serial dilutions were conducted from the starting concentration of 50 mM.
The 2× CHUK (IKK alpha) kinase was prepared in 50 mM HEPES pH 7.5, 0.01% BRIJ-35, 10 mM MgCl2 and 1 mM EGTA. The final 10 μL kinase mixture consisted of 50-250 ng CHUK (IKK alpha) in 32.5 mM HEPES pH 7.5, 0.005% BRIJ-35, 5 mM MgCl2 and 0.5 mM EGTA. No substrate was required, as the assay measures the ability of a compound to inhibit the kinase's intrinsic ATPase activity.
5 μL of 2× Kinase mixture was incubated with 2.5 μL of ATP solution diluted to a 4×working concentration in water, in the presence of 100 nL of 100× test compound in 100% DMSO and 2.4 μL of 30 mM HEPES buffer.
After 30-second plate shake and 1-minute centrifuge at 1000×g, the resulting kinase reaction was allowed to incubate for 1 hour at room temperature before 5 μL of Detection Mix was added.
The Detection Mix, previously prepared in TR-FRET Dilution Buffer, consisted of EDTA (30 mM), Eu-anti-ADP antibody (6 nM) and an Alexa Fluor™ 647 labelled ADP tracer. The Detection Mix contained the EC60 concentration of tracer for 5-150 μM ATP.
After 30-second plate shake and 1-minute centrifuge at 1000×g, the Detection Mix was allowed to equilibrate at room temperature for 1 hour. Then the plate was read using a fluorescence plate reader configured for Adapta™ TR-FRET and the data analysed.
ADP formation was determined by calculating the emission ratio from the assay well. Therefore, the emission ratio was calculated by dividing the intensity of the tracer (acceptor) emission by the intensity of the Eu (donor) emission at 615 nm as shown in the equation below.
The IKKα and IKKb figures quoted in italicised form are from the Adapta assay described above.

[2] = target: T2, Recombinant IKKα (Homo sapiens, UniProt O15111); test: DELFIA IKKα kinase assay (apparent Ki, Cheng-Prusoff); format: biochemical; conditions: DELFIA assay (first line of an example)
T2 construct: purchased Millipore, Dundee, UK
T2 sequence (O15111 1-745): T1 sequence (O15111 1-745)
Summary of the method: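 Recombinant IKKα or IKKβ (37 nM) with 0.375 μM biotinylated IκB-α (Ser32) peptide and 40 μM ATP in 40 mM Tris-HCl pH 7.5, 20 mM MgCl2, 60 min at 30° C. Phospho-substrate captured on streptavidin and detected by anti-phospho-IκB-α plus europium anti-mouse IgG time-resolved fluorescence; apparent Ki via Cheng-Prusoff.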

SMILES: Nc1n[nH]c2ccc(-c3ccnc4[nH]c(C5CC5)cc34)cc12 [Example 218, 5-(2-Cyclopropyl-1H-pyrrolo[2,3-b]pyridin-4-yl)-1H-indazol-3-amine]
- IC50 [1]: 1 nM
- Ki [2]: 5 nM

SMILES: Nc1n[nH]c2ccc(-c3ccnc4[nH]c(C5CCCCC5)cc34)cc12 [Example 219, 5-(2-Cyclohexyl-1H-pyrrolo[2,3-b]pyridin-4-yl)-1H-indazol-3-amine]
- IC50 [1]: 14 nM
- Ki [2]: 42 nM

SMILES: CC(C)(C)Cc1cc2c(-c3ccc4[nH]nc(N)c4c3)ccnc2[nH]1 [Example 220, 5-(2-Neopentyl-1H-pyrrolo[2,3-b]pyridin-4-yl)-1H-indazol-3-amine]
- IC50 [1]: 2 nM
- Ki [2]: 58 nM

SMILES: Nc1n[nH]c2ccc(-c3ccnc4[nH]c(CC5CCCCC5)cc34)cc12 [Example 221, 5-(2-(Cyclohexylmethyl)-1H-pyrrolo[2,3-b]pyridin-4-yl)-1H-indazol-3-amine]
- IC50 [1]: 8 nM
- Ki [2]: 38 nM

SMILES: Nc1n[nH]c2ccc(-c3ccnc4[nH]c(CCC5CCCCC5)cc34)cc12 [Example 222, 5-(2-(2-Cyclohexylethyl)-1H-pyrrolo[2,3-b]pyridin-4-yl)-1H-indazol-3-amine]
- IC50 [1]: 26 nM
- Ki [2]: 19 nM

SMILES: Nc1n[nH]c2ccc(-c3ccnc4[nH]c(CO)cc34)cc12 [Example 224]
- IC50 [1]: 1 nM
- Ki [2]: 5 nM

SMILES: CC(C)(C)OCc1cc2c(-c3ccc4[nH]nc(N)c4c3)ccnc2[nH]1 [Example 227, 5-(2-(tert-Butoxymethyl)-1H-pyrrolo[2,3-b]pyridin-4-yl)-1H-indazol-3-amine]
- IC50 [1]: 2 nM
- Ki [2]: 29 nM

SMILES: Nc1n[nH]c2ccc(-c3ccnc4[nH]c(C5CCOCC5)cc34)cc12 [Example 228, 5-(2-(tetrahydro-2H-pyran-4-yl)-1H-pyrrolo[2,3-b]pyridin-4-yl)-1H-indazol-3-amine]
- IC50 [1]: 1 nM
- Ki [2]: 12 nM

SMILES: Nc1n[nH]c2ccc(-c3ccnc4[nH]c(C5CCCCO5)cc34)cc12 (stereo not drawn) [Example 229, 5-(2-(Tetrahydro-2H-pyran-2-yl)-1H-pyrrolo[2,3-b]pyridin-4-yl)-1H-indazol-3-amine]
- IC50 [1]: 1 nM
- Ki [2]: 27 nM

SMILES: Nc1n[nH]c2ccc(-c3ccnc4[nH]c(CC5CCOCC5)cc34)cc12 [Example 230, 5-(2-((tetrahydro-2H-pyran-4-yl)methyl)-1H-pyrrolo[2,3-b]pyridin-4-yl)-1H-indazol-3-amine]
- IC50 [1]: 1 nM
- Ki [2]: 11 nM

SMILES: Nc1n[nH]c2ccc(-c3ccnc4[nH]c(C(=O)N5CCCC5)cc34)cc12 [Example 234, (4-(3-Amino-1H-indazol-5-yl)-1H-pyrrolo[2,3-b]pyridin-2-yl)(pyrrolidin-1-yl)methanone]
- IC50 [1]: 32 nM
- Ki [2]: 19 nM

SMILES: Nc1n[nH]c2ccc(-c3ccnc4[nH]c(C(=O)NC5CCCCC5)cc34)cc12 [Example 236, 4-(3-Amino-1H-indazol-5-yl)-N-cyclohexyl-1H-pyrrolo[2,3-b]pyridine-2-carboxamide]
- IC50 [1]: 2 nM
- Ki [2]: 10 nM

SMILES: CN1CCN(C(=O)c2cc3c(-c4ccc5[nH]nc(N)c5c4)ccnc3[nH]2)CC1 [Example 243, (4-(3-Amino-1H-indazol-5-yl)-1H-pyrrolo[2,3-b]pyridin-2-yl)(4-methylpiperazin-1-yl)methanone]
- IC50 [1]: 13 nM
- Ki [2]: 72 nM

SMILES: CC(C)(C)NCc1cc2c(-c3ccc4[nH]nc(N)c4c3)ccnc2[nH]1 [Example 248, 5-(2-((tert-Butylamino)methyl)-1H-pyrrolo[2,3-b]pyridine-4-yl)-1H-indazol-3-amine]
- IC50 [1]: 34 nM
- Ki [2]: 202 nM

SMILES: Nc1n[nH]c2ccc(-c3ccnc4[nH]c(C5CCCCN5)cc34)cc12 (stereo not drawn) [Example 250, 5-(2-(Piperidin-2-yl)-1H-pyrrolo[2,3-b]pyridine-4-yl)-1H-indazol-3-amine]
- IC50 [1]: 41 nM
- Ki [2]: 380 nM

SMILES: Nc1n[nH]c2ccc(-c3ccnc4[nH]c(CNC5CCCCC5)cc34)cc12 [Example 251, 5-(2-((cyclohexylamino)methyl)-1H-pyrrolo[2,3-b]339yridine-4-yl)-1H-indazol-3-amine]
- IC50 [1]: 6 nM
- Ki [2]: 74 nM

SMILES: CN(C)CCCNCc1cc2c(-c3ccc4[nH]nc(N)c4c3)ccnc2[nH]1 [Example 258, N^1-((4-(3-amino-1H-indazol-5-yl)-1H-pyrrolo[2,3-b]pyridin-2-yl)methyl)-N^3,N^3-dimethylpropane-1,3-diamine]
- IC50 [1]: 10 nM
- Ki [2]: 16 nM

SMILES: CC(C)N(C)Cc1cc2c(-c3ccc4[nH]nc(N)c4c3)ccnc2[nH]1 [Example 259, 5-(2-((Isopropyl(methyl)amino)methyl)-1H-pyrrolo[2,3-b]pyridine-4-yl)-1H-indazol-3-amine]
- IC50 [1]: 32 nM
- Ki [2]: 110 nM

SMILES: Nc1n[nH]c2ccc(-c3ccnc4[nH]c(CN5CCCCC5)cc34)cc12 [Example 260, 5-(2-(Piperidin-1-ylmethyl)-1H-pyrrolo[2,3-b]pyridine-4-yl)-1H-indazol-3-amine]
- IC50 [1]: 27 nM
- Ki [2]: 91 nM

SMILES: Nc1n[nH]c2ccc(-c3ccnc4[nH]c(CN5CCC(F)(F)CC5)cc34)cc12 [Example 261, 5-(2-((4,4-Difluoropiperidin-1-yl)methyl)-1H-pyrrolo[2,3-b]pyridine-4-yl)-1H-indazol-3-amine]
- IC50 [1]: 11 nM
- Ki [2]: 49 nM

SMILES: Nc1n[nH]c2ccc(-c3ccnc4[nH]c(CN5CCOCC5)cc34)cc12 [Example 262, 5-(2-(Morpholinomethyl)-1H-pyrrolo[2,3-b]pyridine-4-yl)-1H-indazol-3-amine]
- IC50 [1]: 2 nM
- Ki [2]: 22 nM

SMILES: CN1CCN(Cc2cc3c(-c4ccc5[nH]nc(N)c5c4)ccnc3[nH]2)CC1 [Example 263, 5-(2-((4-Methylpiperazin-1-yl)methyl)-1H-pyrrolo[2,3-b]pyridine-4-yl)-1H-indazol-3-amine]
- IC50 [1]: 14 nM
- Ki [2]: 62 nM

SMILES: Nc1n[nH]c2ccc(-c3ccnc4[nH]c(CN5CCCCCC5)cc34)cc12 [Example 265, 5-(2-(Azepan-1-ylmethyl)-1H-pyrrolo[2,3-b]pyridine-4-yl)-1H-indazol-3-amine]
- IC50 [1]: 13 nM
- Ki [2]: 91 nM

SMILES: CN1CCCN(Cc2cc3c(-c4ccc5[nH]nc(N)c5c4)ccnc3[nH]2)CC1 [Example 266, 5-(2-((4-Methyl-1,4-diazepan-1-yl)methyl)-1H-pyrrolo[2,3-b]pyridin-4-yl)-1H-indazol-3-amine]
- IC50 [1]: 11 nM
- Ki [2]: 46 nM

SMILES: Nc1n[nH]c2ccc(-c3ccnc4[nH]c(CCN5CCCCC5)cc34)cc12 [Example 267, 5-(2-(2-(Piperidin-1-yl)ethyl)-1H-pyrrolo[2,3-b]pyridine-4-yl)-1H-indazol-3-amine]
- IC50 [1]: 8 nM
- Ki [2]: 53 nM

SMILES: Nc1n[nH]c2ccc(-c3ccnc4[nH]c(CCN5CCOCC5)cc34)cc12 [Example 268, 5-(2-(2-Morpholinoethyl)-1H-pyrrolo[2,3-b]pyridin-4-yl)-1H-indazol-3-amine]
- IC50 [1]: 1 nM
- Ki [2]: 11 nM

SMILES: Nc1n[nH]c2ccc(-c3ccnc4[nH]c(CCCN5CCCCC5)cc34)cc12 [Example 269, 5-(2-(3-(Piperidin-1-yl)propyl)-1H-pyrrolo[2,3-b]pyridin-4-yl)-1H-indazol-3-amine]
- IC50 [1]: 4 nM
- Ki [2]: 11 nM
